Test results taken from US10280229B2, “Linkers and their application towards ADC” (MEDSHINE DISCOVERY INC., priority 2014, dated 2019).

target: bovine cathepsin B (Bos taurus, UniProt P07688); assay: Rate of hydrolysis of fluorescent dipeptide substrates incubated with bovine cathepsin B (release of 7-AMC); type: biochemical; details: incubation with bovine cathepsin B
Experimental: A convenient method was developed to identify suitable dipeptide units for the use in drug-linker intermediates. Cbz-protected dipeptides incorporated a fluorescent tag (7-amino-4-methylcouramin, 7-AMC) via a para-aminobenzyl carbonyl fragment were prepared by standard peptide chemistry as shown in Scheme 1. These dipeptide substrates were then incubated with bovine cathepsin B under a similar condition as described by Dubowchik (Biorg. Med. Chem. Lett. 1998, 8, 3341-3346). Rate of hydrolysis by bovine cathepsin B was measured by the release of 7-AMC (Table 1). Novel dipeptides with hydrolysis rates slower than the substrate A were rejected. The three dipeptide units in FS-9, FS-10 and FS-11 were selected as additional dipeptide units for drug-linker intermediate preparation.

Rate of Hydrolysis	SMILES
0.84 nmmol/min/mg	Cc1cc(=O)oc2cc(NC(=O)OCc3ccc(NC(=O)[C@H](CCCNC(N)=O)NC(=O)[C@@H](NC(=O)OCc4ccccc4)C4CCNCC4)cc3)ccc12
0.59 nmmol/min/mg	Cc1cc(=O)oc2cc(NC(=O)OCc3ccc(NC(=O)[C@H](CCCNC(N)=O)NC(=O)[C@@H](NC(=O)OCc4ccccc4)C4CCN(C)CC4)cc3)ccc12
0.63 nmmol/min/mg	CCOC(=O)N1CCC([C@H](NC(=O)OCc2ccccc2)C(=O)N[C@@H](CCCNC(N)=O)C(=O)Nc2ccc(COC(=O)Nc3ccc4c(C)cc(=O)oc4c3)cc2)CC1
0.84 nmmol/min/mg	Cc1cc(=O)oc2cc(NC(=O)OCc3ccc(NC(=O)[C@H](CCCNC(N)=O)NC(=O)[C@@H](NC(=O)OCc4ccccc4)C4CCOCC4)cc3)ccc12
0 nmmol/min/mg	Cc1cc(=O)oc2cc(NC(=O)OCc3ccc(NC(=O)[C@H](CCCNC(N)=O)NC(=O)[C@@H](NC(=O)OCc4ccccc4)C4CCSCC4)cc3)ccc12
0.55 nmmol/min/mg	Cc1cc(=O)oc2cc(NC(=O)OCc3ccc(NC(=O)[C@H](CCCNC(N)=O)NC(=O)[C@@H](NC(=O)OCc4ccccc4)C4CC[S+]([O-])CC4)cc3)ccc12 (stereo partly drawn)
0 nmmol/min/mg	Cc1cc(=O)oc2cc(NC(=O)OCc3ccc(NC(=O)[C@H](CCCNC(N)=O)NC(=O)[C@@H](NC(=O)OCc4ccccc4)C4CCS(=O)(=O)CC4)cc3)ccc12
0 nmmol/min/mg	Cc1cc(=O)oc2cc(NC(=O)OCc3ccc(NC(=O)[C@H](CCCNC(N)=O)NC(=O)[C@@H](NC(=O)OCc4ccccc4)C4CCCNC4)cc3)ccc12 (stereo partly drawn)
27.2 nmmol/min/mg	Cc1cc(=O)oc2cc(NC(=O)OCc3ccc(NC(=O)[C@H](CCCN4CCOCC4)NC(=O)[C@@H](NC(=O)OCc4ccccc4)C(C)C)cc3)ccc12
25.1 nmmol/min/mg	Cc1cc(=O)oc2cc(NC(=O)OCc3ccc(NC(=O)[C@H](CCCN4CCCCC4)NC(=O)[C@@H](NC(=O)OCc4ccccc4)C(C)C)cc3)ccc12
20.9 nmmol/min/mg	Cc1cc(=O)oc2cc(NC(=O)OCc3ccc(NC(=O)C(CC4CCC(CN)CC4)NC(=O)[C@@H](NC(=O)OCc4ccccc4)C(C)C)cc3)ccc12 (stereo partly drawn)
2.67 nmmol/min/mg	Cc1cc(=O)oc2cc(NC(=O)OCc3ccc(NC(=O)[C@H](CCCNC(N)=O)NC(=O)[C@@H](NC(=O)OCc4ccccc4)C(C)C)cc3)ccc12 [reference compound]
